Measured values: patent US10730890B2, “Phthalocyanine derivative consisting of a mixture of 4 isomers” (MOLTENI THERAPEUTICS S.R.L., priority 2009, dated 2020)

Legend:
[1] = solubilisation of intermediate (II) in DMF and THF/MeOH 1/1, HPLC analysis of the solutions; assay type: physicochemical; settings: 2 mg/ml, isomer B precipitates
Procedure: Experimental Proof of the Difficulty of Preparing Solutions of (II), Due to the Low Solubility of the Isomer B.
Two samples of the same batch of intermediate (II) are solubilised (2 mg/ml) in, DMF and THF/MeOH 1/1. The solutions are appropriately diluted and analysed in HPLC. […] This behaviour can lead to the preparation of samples having variable composition and, ultimately, to the production of not reliable analytical data including the ones concerning the other isomers

[2] = pharmacological and toxicological activity of product (I) compared with compounds (V) and (VI); settings: new isomers distribution (low isomer B content) with respect to compounds (V) and (VI)

Row | solubility of the isomer B in comparison to the other isomers [1] | Substance | difference in terms of pharmacological and toxicological activity [2]
1 | lower solubility | [1,8(11),15(18),22(25)-tetrakis-(3-N,N-dimethylamino phenoxy)] Zinc Phthalocyaninate [isomer B] | 
2 |  | [1.8(11),15(18),22(25)-tetrakis-(3-N,N,N-trimethylammonium phenoxy)] Zinc Phthalocyaninate Tetrachloride “With Low Isomer B Content” [(I)] | does not imply any difference
